Measured values as given in patent US20180021347A1, “COMPOSITION FOR THE TREATMENT OF HEPATIC VENO-OCCLUSIVE DISEASE” (priority 2015, published 2018).

Key:
[1] = human, in vivo; cited from earlier work
[2] = cited from earlier work
[3] = cited from earlier work; remark: listed apart in the source
TSECs [4] = test: Busulfan-induced death of TSECs (trypan blue cell viability); format: cell-based, human
Experimental: (Cheuk D K et al, Bone Marrow transplant 40: 935-944, 2007). We tested, if the toxicity of busulfan was amenable to in vitro studies on TSECs. Accordingly, we defined the concentration-response curve for busulfan-induced death of TSECs. In analogy to Raimer J et al (EurJClinPharmacol 68: 932-935, 2012), who had used ECV304 cells, we plated TSECs on collagen-coated plastic dishes (5×10^3 cells/24-well plate). After 24 hours, busulfan was added at increasing concentrations (10 μM-1 mM). The concentration range was based on reports in the literature and on the serum levels observed in patients undergoing myeloablative chemotherapy. Cell viability was assessed after 24, 48 and 72 h.
TSECs were plated on collagen-coated plastic dishes (5*10^3 cells/24-well plate). After 24 hours busulfan, a cell cycle non-specific alkylating antineoplastic agent, in the class of alkyl sulfonates with a chemical designation is 1,4-butanediol dimethanesulfonate, used as chemotherapeutic agent and known to induce VOD, was added at increasing concentrations (10 μM-1 mM). The concentration range is based on reports in the literature and on the serum levels observed in patients undergoing myeloablative chemotherapy. Cell viability was assessed after 24, 48 and 72 hours. For this purpose cells were washed twice with PBS, trypsinized, mixed with trypan blue (1:1 volumes) and counted using a hemocytometer. […] The data (means±standard deviation) shown represent cell death after for 48 hours.

[5] = test system: tissue factor pathway inhibitor (TFPI); test: qPCR of candidate target gene mRNA in TSECs: TFPI; format: cell-based, human
Experimental: (§1) After pretreatment of TESCs with 10 μM treprostinil for 1 h, cells were co-incubated with 10 μM treprostinil and 125 μM BU for 24 h. Total RNA was extracted by the use of PARIS Kit (life technologies). cDNA synthesis was performed by High-Capacity Reverse Transcription Kit (applied biosystems); the resulting cDNA (equivalent to 50 ng RNA/reaction) was analyzed via qPCR (StepOnePlus real-time PCR System®, Applied Biosystems). 18s rRNA was used as a reference gene.
Based on preliminary experiments we identified plasminogen-activator inhibitor-1 (PAI-1), tissue factor (TF), tissue factor pathway inhibitor (TFPI) and thrombomodulin (TM) as suitable genes to study the potential of treprostinil to counteract busulfan-induced effects in TSECs. We also tested if busulfan-mediated effects are counteracted by 10 μM treprostinil. A total of 1.5×10^5 TESCs were plated in 6 well plates. As soon as 90% confluence was reached, cells were pretreated with treprostinil for 1 h, then cells were incubated for 24h in standard culture medium containing both BU and treprostinil. Thereafter, cells were washed and mRNA was prepared. Treprostinil counteracted the busulfan-induced increased expression of procoagulatory factors such as PAI-1 and TF (data not shown). […] These observations justify the use of TSECs as an in vitro model system to study surrogate parameters, which are predictive of an increased risk of VOD in vivo.
Treatment of TESCs was performed as indicated in the legend to FIG. 6. Treprostinil-treatment was initiated 1 h prior to addition of busulfan. Cells were collected 24 h later.

TSECs [6] = test: Yield of RNA/mRNA from TSECs after busulfan and treprostinil; format: cell-based, human
Experimental: In EC340 cells, concentrations as high as 300 μM were tolerated for 96h and allowed for investigating target gene expression and regulation upon treatment with busulfan. This concentration was not compatible with the extraction of mRNA in TSECs: the amount, quality and stability of mRNA were affected in a dose- and time-dependent manner (FIG. 5 and data not shown). […] Based on the time course of gene regulation in EC340 cells, we tested a treatment duration between of a minimum of 12h and a maximum of 96h (data not shown).
Cells were either treated with 125 μM, 250 μM or 300 μM BU, the combination thereof with treprostinil (10 μM), or treprostinil (10 μM) alone, or kept in standard medium [Endothelial Cell Medium, ECM Sciencell™, USA, TSECs containing 5% fetal bovine serum, 1% endothelial cell growth supplement (ECGS) and 1% penicillin/streptomycin at 37° C. and 5% CO2]. a) Total RNA was extracted by Trizol® (lifetechnologies) according to the manufacturer's protocol. RNA concentration (ng/μl) and purity was determined with Nanodrop 2000®. If equal numbers of cells (1.6×10^5) were seeded per well, treatment with 250 and 300 μM BU induced cell death in as much rendering reproducible and valid yields of absolute RNA content impossible, already after 48h of treatment. b) The absolute yield in RNA preparations (μg/μl) was compared between cells, which had been incubated in standard medium (untreated), and cells, which had been treated with BU (125 or 250 μM BU) plus treprostinil (10 μM Trep), or treprostinil alone.

thrombomodulin (TM) = test: qPCR of candidate target gene mRNA in TSECs: TM; format: cell-based, human; conditions: data not shown
Experimental: as §1
(§2) Based on preliminary experiments we identified plasminogen-activator inhibitor-1 (PAI-1), tissue factor (TF), tissue factor pathway inhibitor (TFPI) and thrombomodulin (TM) as suitable genes to study the potential of treprostinil to counteract busulfan-induced effects in TSECs. We also tested if busulfan-mediated effects are counteracted by 10 μM treprostinil. A total of 1.5×10^5 TESCs were plated in 6 well plates. As soon as 90% confluence was reached, cells were pretreated with treprostinil for 1 h, then cells were incubated for 24h in standard culture medium containing both BU and treprostinil. Thereafter, cells were washed and mRNA was prepared. Treprostinil counteracted the busulfan-induced increased expression of procoagulatory factors such as PAI-1 and TF (data not shown). […]

EC340 cells = conditions: 96h; cited from earlier work
tissue factor (TF) = test: qPCR of candidate target gene mRNA in TSECs: TF; format: cell-based, human
Experimental: as §1, §2

[7] = test system: plasminogen-activator inhibitor-1 (PAI-1); test: qPCR of candidate target gene mRNA in TSECs: PAI-1; format: cell-based, human
Experimental: as §1, §2

EP3-receptors = target: T1, EP3-receptors (Homo sapiens, UniProt P43115); conditions: inhibitory Gi-coupled EP3-receptors; cited from earlier work
T1 sequence (P43115 1-390): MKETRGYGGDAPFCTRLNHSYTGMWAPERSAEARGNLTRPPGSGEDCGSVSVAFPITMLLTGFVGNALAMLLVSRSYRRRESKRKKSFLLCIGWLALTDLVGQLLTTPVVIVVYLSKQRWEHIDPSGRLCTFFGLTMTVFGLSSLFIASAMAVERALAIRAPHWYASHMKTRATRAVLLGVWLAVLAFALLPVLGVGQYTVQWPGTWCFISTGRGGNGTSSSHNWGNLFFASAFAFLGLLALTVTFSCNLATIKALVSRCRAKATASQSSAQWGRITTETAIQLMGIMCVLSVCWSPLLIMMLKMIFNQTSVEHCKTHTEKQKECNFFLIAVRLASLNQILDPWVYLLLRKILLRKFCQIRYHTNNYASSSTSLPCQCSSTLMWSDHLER

EP4-receptors = EP4-receptors (Homo sapiens, UniProt P35408); conditions: cited from earlier work
TSECs [8] = test: Attenuation by treprostinil of busulfan-induced cell death in TSECs; format: cell-based, human
Experimental: TSECs were pretreated with treprostinil (10 μM) for 1 h and examined, if this protected them against busulfan-induced cell death by challenging them—in the continuous presence of treprostinil—with 125 and 250 μM and 500 μM Busulfan (BU). After 24 h, cell viability was determined by counting detached cells in a haemocytometer and determining the number of trypan blue-positive (=dead) and trypan-blue excluding (=live) cells.
TSECs were plated on collagen-coated plastic dishes (5*10^3 cells/24-well plate). After 24 hours treprostinil was added at a concentration of […]. One hour later, busulfan was added at increasing concentrations. Cell viability was assessed after 48 hours.
We examined the concentration range, in which treprostinil protected TSECs against busulfan-induced cell death. TSECs were plated on collagen-coated plastic dishes and after 24 h treprostinil was added at concentrations of 5, 10 and 20 pM. One hour later, busulfan was added at concentrations of 125 and 250 μM. Cell viability was assessed after 48 h. […] The data were analyzed using a 2-way ANOVA.
TSECs were plated on collagen-coated plastic dishes (5*10^3 cells/24-well plate). After 24 hours treprostinil was added at concentrations of 5, 10 and 20 pM. One hour later, busulfan was added at concentration of 125 and 250 μM. Cell viability was assessed after 48 hours. Even low concentrations of treprostinil (5 μM) attenuated busulfan induced cell death. […] The data were analyzed by two-way ANOVA. A Bonferroni post hoc test was conducted to test for differences between individual treatment groups.

EP2-receptors = EP2-receptors (Homo sapiens, UniProt P43116); conditions: cited from earlier work
[9] = test system: intracellular cAMP levels in TSECs; test: cAMP accumulation in TSECs; format: cell-based, human; conditions: 1 h
Experimental: It is desirable to understand the mechanisms, which allow treprostinil to modulate busulfan-induced gene expression, because this allows for searching for additional target genes. It was assumed that the action of treprostinil is mediated by an increased accumulation of cAMP. […] This was seen both, in the presence of 30 μM forskolin ([…], left hand panel) and if the concentration of forskolin was titrated between 1 and 30 μM (FIG. 6, middle and right hand panel). It was also seen regardless of whether [^3H]cAMP was low (FIG. 6, middle panel) or high (FIG. 6, right hand panel).
Control cells were incubated in standard medium. For comparison, cAMP accumulation was also assessed after incubation with dmPGE2. […] In the third experiment, the response was higher, presumably due to more extensive labelling of the adenine nucleotide pool. However, in none of the experiments tested, treprostinil alone sufficed to increase intracellular cAMP levels over that seen in untreated control cells.

[10] = 10 μM treprostinil 1 h pretreatment, then with 125 μM BU for 24 h, data not shown

Chain of EP2-receptors (P43116 whole entry): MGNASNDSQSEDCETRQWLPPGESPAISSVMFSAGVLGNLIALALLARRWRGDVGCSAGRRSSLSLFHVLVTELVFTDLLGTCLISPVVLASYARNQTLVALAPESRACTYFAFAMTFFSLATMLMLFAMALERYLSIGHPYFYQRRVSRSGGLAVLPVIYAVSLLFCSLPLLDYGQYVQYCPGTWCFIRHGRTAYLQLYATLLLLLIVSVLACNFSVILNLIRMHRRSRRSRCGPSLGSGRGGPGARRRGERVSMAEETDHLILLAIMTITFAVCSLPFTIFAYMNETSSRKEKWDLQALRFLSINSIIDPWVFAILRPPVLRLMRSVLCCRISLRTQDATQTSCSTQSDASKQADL
Chain of EP4-receptors (P35408 whole entry): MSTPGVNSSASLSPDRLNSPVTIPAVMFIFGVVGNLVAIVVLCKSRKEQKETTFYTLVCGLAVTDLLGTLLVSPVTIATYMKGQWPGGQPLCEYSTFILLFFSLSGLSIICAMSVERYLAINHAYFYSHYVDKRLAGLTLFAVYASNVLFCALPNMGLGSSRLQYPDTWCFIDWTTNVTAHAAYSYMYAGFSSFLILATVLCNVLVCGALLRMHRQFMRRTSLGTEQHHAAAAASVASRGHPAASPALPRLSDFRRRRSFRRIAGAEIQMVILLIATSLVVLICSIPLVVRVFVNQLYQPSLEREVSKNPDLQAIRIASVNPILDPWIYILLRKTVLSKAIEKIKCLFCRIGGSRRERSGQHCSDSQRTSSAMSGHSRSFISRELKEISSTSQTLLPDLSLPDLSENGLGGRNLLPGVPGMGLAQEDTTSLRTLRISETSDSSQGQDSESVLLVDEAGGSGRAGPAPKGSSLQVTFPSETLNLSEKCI

CCCCC[C@H](O)/C=C/[C@@H]1[C@H]2C/C(=C/CCCC(=O)O)O[C@H]2C[C@H]1O [Flolan]
maximum tolerable dosage [1]: 5 to 8 ng/kg/day | serum half-life [2]: very short

CCCCC[C@H](O)/C=C/[C@H]1[C@H](O)CC(=O)[C@@H]1CCCCCCC(=O)O [PGE1, prostaglandin E1]
advantage in VOD ([3]; PGE1 alone (Senzolo M. et al., 2007)): failed to show any advantage

CS(=O)(=O)OCCCCOS(C)(=O)=O [busulfan, 1,4-butanediol dimethanesulfonate]
cell death of TSECs, concentration dependence (TSECs [4]; busulfan 10 μM-1 mM, 48 hours, absence of hepatocytes (FIG. 2)): induced cell death in a concentration dependent manner | cell death of TSECs (TSECs [4]; busulfan 10 μM-1 mM, after 24 h): No obvious cell death | cell death of TSECs (TSECs [4]; busulfan, also at lower concentrations, after 72 h): almost complete cell death | expression of TFPI ([5]; busulfan): induced | highest busulfan concentration allowing harvest of mRNA of adequate quality for qPCR (TSECs [6]; 48 h pretreatment of TSECs): 125 µM | yield of RNA compared to untreated cells (100%) (TSECs [6]; busulfan 125 μM for 48h): 85% | yield of RNA compared to untreated cells (100%) (TSECs [6]; busulfan 250 μM for 48h): 74% | thrombomodulin (TM) expression (thrombomodulin (TM); busulfan 125 μM, 24 h): decreased the expression | tolerated concentration (EC340 cells): ≤ 300 µM | TF expression (tissue factor (TF); busulfan 125 μM, 24 h): induces the expression | PAI-1 expression ([7]; busulfan 125 μM, 24 h): induces the expression

CCCCC(C)(C)[C@H](O)/C=C/[C@H]1[C@H](O)CC(=O)[C@@H]1C/C=C\CCCC(=O)O [dimethyl-PGE2]
agonism at EP3-receptors (EP3-receptors): full agonist

CCCCC[C@H](O)/C=C/[C@H]1[C@H](O)CC(=O)[C@@H]1C/C=C\CCCC(=O)O [prostaglandin E2]
incidence of VOD ([3]; in combination with heparin (Senzolo M. et al., 2007)): lower incidence of VOD

CCCCC[C@H](O)CC[C@@H]1[C@H]2Cc3cccc(OCC(=O)[O-])c3C[C@H]2C[C@H]1O.[Na+] [treprostinil, (1R,2R,3aS,9aS)-[[2,3,3a,4,9,9a-hexahydro-2-hydroxy-1-[(3S)-3-hydroxyoctyl]-1H-benz[f]inden-5-yl]oxy]acetic acid monosodium salt]
stimulation of EP4-receptors (EP4-receptors): selectively stimulates | expression of TFPI ([5]; treprostinil): induced | regulation of expression of mRNA of TFPI, concentration dependence ([5]; treprostinil in TESCs): concentration-dependent manner | concentration close to saturation of protection against busulfan-induced cell death (TSECs [8]; busulfan 125 and 250 μM, 48 h): 10 µM | cell viability (TSECs [8]; treprostinil 10 pM added 1 hour before busulfan 125 and 250 μM, 48 hours): increased viability | effect on busulfan-induced cell death (TSECs [8]; treprostinil 5 μM, busulfan 125 and 250 μM, 48 h): attenuated busulfan-induced cell death | effect on BU-induced toxicity (cell viability) (TSECs [8]; treprostinil 10 μM, 1 h pretreatment, busulfan 125, 250 and 500 μM, after 24 h, three independent experiments): attenuated BU-induced toxicity | beneficial effect on busulfan induced cell death at higher concentrations (TSECs [8]; treprostinil above 5 μM (10 and 20), busulfan 125 and 250 μM, 48 hours): did not increase at higher concentrations | stimulation of EP2-receptors (EP2-receptors): selectively stimulates | intracellular cAMP levels ([9]; sole addition of treprostinil): did not suffice to increase intracellular cAMP levels | intracellular cAMP levels ([9]; treprostinil 10 μM, cells sensitized with forskolin (1 to 30 μM)): further increased intracellular cAMP levels | loss in RNA yield (TSECs [6]; busulfan plus 10 μM treprostinil, pretreated 1 hour and co-incubated 24 h): 11% | RNA content compared to control cells (TSECs [6]; treprostinil alone (10 μM), 5 independent RNA preparations): 111% | effect on busulfan-induced decrease of TM expression (thrombomodulin (TM); 10 μM treprostinil 1 h pretreatment, then with 125 μM BU for 24 h): mitigated the effect of busulfan | effect on busulfan-induced increased expression of TF (tissue factor (TF); [10]): counteracted | effect on busulfan-induced increased expression of PAI-1 [7, 10]: counteracted | agonism at EP3-receptors (EP3-receptors): low affinity agonist
